Read-outs that look alike come from different tables or passages of the source.
How the values were obtained:
chronic PCP-treated rats [1] = conditions: cited from earlier work
chronic PCP-treated rats [2] = experiment: LCGU (2-DG) in chronic PCP rat model
[3] = target: T1, M4 muscarinic receptors (N1E-115 cells) (Mus musculus, UniProt P32211); experiment: Homogenate assay for c-AMP production (PACAP-stimulated); type: biochemical; conditions: N1E-115 homogenate; for reduction of c-AMP levels (agonist activity): PACAP 0.1 nM stimulation
T1 construct: endogenous in cells; host or cells: mouse N1E-115 cells (homogenate)
T1 sequence (P32211 1-479): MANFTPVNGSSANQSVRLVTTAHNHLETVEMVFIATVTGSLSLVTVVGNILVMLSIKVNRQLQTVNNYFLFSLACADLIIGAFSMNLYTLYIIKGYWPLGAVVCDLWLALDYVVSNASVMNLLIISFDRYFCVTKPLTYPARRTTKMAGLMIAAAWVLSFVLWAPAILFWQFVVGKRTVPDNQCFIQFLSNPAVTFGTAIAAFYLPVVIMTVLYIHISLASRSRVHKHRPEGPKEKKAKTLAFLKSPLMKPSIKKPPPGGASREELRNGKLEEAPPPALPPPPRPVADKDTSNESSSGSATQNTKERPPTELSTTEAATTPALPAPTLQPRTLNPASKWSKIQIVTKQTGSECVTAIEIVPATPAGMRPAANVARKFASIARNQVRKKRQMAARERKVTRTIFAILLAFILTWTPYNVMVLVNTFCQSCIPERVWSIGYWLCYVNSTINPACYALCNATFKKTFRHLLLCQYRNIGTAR
Method: N1E-115 cells were harvested by scraping and placed in Ribolyser tubes on dry ice. Ice cold buffer (0.5 ml) containing 50 mM Tris HCl, 0.4 mM EDTA and 0.4 mM EGTA (pH 7.4) was added to the tubes. The tubes were then placed in a Ribolyser and shaken at 4 g for 20 sec. The homogenate was then transferred to eppendorf tubes and was then centrifuged at 19,700 g for 30 min at 4° C. The pellet was resuspended in ice cold 50 mM Tris HCl (pH7.4) at a concentration of 50 mg ml^−1 wet weight of tissue. The homogenate was stored in aliquots at −70° C. Protein concentrations of the homogenates were determined using a Bio-Rad protein determination kit. The assay was carried out in a final assay volume of 120 μl containing 50 mM Tris HCl (pH7.4), 5 mM MgCl2 50 μM GTP, 200 μM ATP, 120 μM sucrose, 0.4 mM EDTA, 0.4 mM EGTA, 200 μM ascorbic acid, 20 μM papaverine, 200 μM rolipram, 10 μM vinpocetine, 10 mM phosphocreatinine, 0.4 mM DTT, 100 nM WAY 100635, 1 μM propranolol, 36 μg bacitracin, 4.8 U creatine phosphokinase, 3.6 KIU aprotinin. Homogenate (1 mgml^−1) was preincubated with the test compound in ice cold assay buffer for 10 min. PACAP (0.1 nM) was then added to the tubes. The tubes were then incubated at 30° C. for 20 min and then at 99° C. for 5 min. Levels of c-AMP in the tubes were measured using the Amersham Pharmacia Biotech Biotrak c-AMP enzymeimmunoassay kit.

[4] = test system: apomorphine-induced deficits in PPI in rats; experiment: apomorphine-induced deficits in prepulse inhibition (PPI); type: in vivo, rat; conditions: s.c. 25 minutes prior to apomorphine 0.5 mg/kg s.c.; Wistar rats
Source text: Male Wistar rats (Japan SLC Inc., Shizuoka, Japan) were used. They were housed in a light, humidity and temperature controlled environment maintained on a 12-hour/12-hour light/dark schedule (light on at 7 am) with food and water provided ad libitum. Four startle chambers (SR-LAB, San Diego Instruments, San Diego, Calif.) were placed in a sound-attenuated room. Each chamber consisted of Plexiglas cylinder 8.8 cm in diameter resting on a 12.7×20.3 cm Plexiglas stand. Acoustic stimuli and background noise were presented via a Supertweeter mounted 24 cm above the Plexiglas cylinder. Startle magnitude was detected and recorded by a microcomputer and interface assembly (San Diego Instruments) as transduced cylinder movement via a piezoelectric device mounted below the Plexiglas stand.
One day before drug testing, all rats were exposed to a “matching” startle session. Data from this session were used to assign rats to balanced groups according to their startle responses. […] Each session was approximately 20 minutes and consisted of 5 minutes of 70-dB background followed by five trial types, PULSE ALONE trial: a 120-dB 50 ms noise burst, PREPULSE trials which consisted of 20 ms noise bursts 3, 5, 10 dB above 70-dB background noise followed 100 ms later by a 120-dB 40 ms noise burst, NOSTIM trial: 100 ms of response was recorded during periods where no stimulus was presented. […]

human D2 membrane = target: T2, human D2 membrane (Homo sapiens, UniProt P14416); experiment: D2 binding assay (3H-spiperone); conditions: 3H-spiperone 0.5 nM
T2 construct: purchased Euroscreen
T2 sequence (P14416 whole entry): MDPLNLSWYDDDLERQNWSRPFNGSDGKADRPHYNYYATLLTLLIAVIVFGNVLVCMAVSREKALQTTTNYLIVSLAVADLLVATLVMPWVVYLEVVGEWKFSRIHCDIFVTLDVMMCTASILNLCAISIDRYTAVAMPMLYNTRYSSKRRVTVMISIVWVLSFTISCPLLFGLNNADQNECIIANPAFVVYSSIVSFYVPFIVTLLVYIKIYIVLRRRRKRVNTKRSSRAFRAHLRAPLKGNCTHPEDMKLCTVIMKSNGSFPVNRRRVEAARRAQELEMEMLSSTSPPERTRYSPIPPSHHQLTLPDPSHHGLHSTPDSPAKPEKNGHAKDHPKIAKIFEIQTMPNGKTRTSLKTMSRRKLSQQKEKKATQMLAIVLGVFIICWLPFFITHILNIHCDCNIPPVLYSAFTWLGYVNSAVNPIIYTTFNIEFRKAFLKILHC
Method: Total volume 200 μl/well. Membrane concentration—human D2 membrane (purchased from Euroscreen)—10 μg/ml; ^3H-spiperone 0.5 nM; Sample conc. 10 nM-300 μM; Haloperidol Displacement Curve—1 nM-10 μM. The plates are incubated at 25° C. for 60 minutes in the dark to avoid any photo degradation.
(§1) Membranes are harvested by rapid filtration using a vacuum manifold under 700 mbar pressure. The plates are washed 3 times with 200 ul/well of ice-cold wash buffer. Plates are dried at 40° C. for 1 hour (Higher CPMs are obtained when the filters are dried). 100 μl scintillation fluid is added to each well and cpm determined using a Microbeta scintillation counter.

human 5-HT7 receptors = target: T3, human 5-HT7 receptors (Homo sapiens, UniProt P34969); experiment: 5-HT7 binding assay (3H-5CT); conditions: human 5-HT7 membrane, 3H-5CT 0.5 nM
T3 construct: purchased Euroscreen
T3 sequence (P34969 whole entry): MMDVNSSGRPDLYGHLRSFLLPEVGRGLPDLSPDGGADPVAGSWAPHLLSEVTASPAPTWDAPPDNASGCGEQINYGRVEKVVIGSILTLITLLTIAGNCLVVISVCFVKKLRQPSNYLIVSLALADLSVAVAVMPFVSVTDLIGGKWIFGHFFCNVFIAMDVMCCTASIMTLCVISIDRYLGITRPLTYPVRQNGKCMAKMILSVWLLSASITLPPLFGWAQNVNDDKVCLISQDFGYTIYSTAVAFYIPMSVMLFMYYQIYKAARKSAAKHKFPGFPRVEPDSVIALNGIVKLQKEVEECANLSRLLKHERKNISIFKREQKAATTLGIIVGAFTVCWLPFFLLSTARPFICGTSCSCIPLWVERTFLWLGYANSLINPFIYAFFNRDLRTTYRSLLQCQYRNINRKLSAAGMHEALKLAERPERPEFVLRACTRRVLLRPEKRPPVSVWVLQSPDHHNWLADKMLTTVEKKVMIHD
Method: The compounds of the present invention were screened for binding affinity using membranes containing stably expressed human M4 muscarinic receptors or human 5-HT7 receptors.
as §1, with “Total volume 200 μl/well. Membrane concentration—human 5-HT7 membrane (purchased from Euroscreen)—6 μg/ml; ^3H-5CT 0.5 nM; Sample conc. 10 nM-300 μM; 8OH-DPAT Displacement Curve—1 nM-3 μM. The plates are incubated at 20° C. for 120 minutes in the dark to avoid any photo degradation. Membranes” for “Membranes”, “dried)” for “dried).”

[5] = target: T4, human M4 muscarinic receptors (Homo sapiens, UniProt P08173); experiment: M4 binding assay (3H-NMS); conditions: human M4 membranes, 3H-NMS 0.25 nM
T4 construct: purchased NEN
T4 sequence (P08173 1-479): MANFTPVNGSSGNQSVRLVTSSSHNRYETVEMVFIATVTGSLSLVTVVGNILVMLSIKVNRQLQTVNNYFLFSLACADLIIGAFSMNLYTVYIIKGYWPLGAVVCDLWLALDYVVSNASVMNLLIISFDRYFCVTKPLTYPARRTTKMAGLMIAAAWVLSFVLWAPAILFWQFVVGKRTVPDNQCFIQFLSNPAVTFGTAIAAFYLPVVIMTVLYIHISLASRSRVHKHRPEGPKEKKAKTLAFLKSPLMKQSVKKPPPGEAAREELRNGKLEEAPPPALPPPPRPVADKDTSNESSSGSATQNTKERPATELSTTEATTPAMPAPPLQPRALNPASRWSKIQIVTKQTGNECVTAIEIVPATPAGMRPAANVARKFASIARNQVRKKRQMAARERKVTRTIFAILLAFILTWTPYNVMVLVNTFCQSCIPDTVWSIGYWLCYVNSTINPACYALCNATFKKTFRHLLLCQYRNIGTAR
Method: Total volume 200 μl/well. Membrane concentration—human M4 membranes (NEN)—8 μg/ml; ^3H-NMS 0.25 nM; Sample conc. 10 nM-300 μM; Atropine Displacement Curve—0.3 nM-1 μM.
The plates are incubated at 20° C. for 60 minutes in the dark to avoid any photo degradation. Membranes are harvested by rapid filtration using a vacuum manifold under 700 mbar pressure. The plates are washed 3 times with 200 ul per well of ice-cold wash buffer. Plates are dried at 40° C. for 1 hour, 100 μl scintillation fluid is added to each well and cpm determined using a Microbeta scintillation counter.

[6] = test system: amphetamine-induced hyper-activity in rats; experiment: amphetamine-induced hyperactivity in rats; type: in vivo, rat; conditions: for Line Crossings (mean ± S.E.): amphetamine control 111.6 ± 6.4
Method: Male Long Evans rats (190-280 g) in each group of five were used. Amphetamine (1.0 mg/kg i.p.) was dissolved in saline, and test compounds were dissolved or suspended in 0.5% hydroxypropylmethylcellulose (HPMC) solution. All the test compounds were injected intraperitoneally in a volume of 0.1 ml/100 g, and control rats were treated with the respective vehicle. The plastic open-field box (40×40×40(H) cm) was used to measure the locomotor activity of rats. The locomotor activity was expressed as the number of line crossings marked on the floor of the test box at 20 cm square. Individual rats were placed in the test box just after the injection of amphetamine, and were allowed to habituate there for 10 min. The line crossings were counted over 15 min thereafter. The behavioural observation was conducted on two rats simultaneously using two test boxes. Test compounds were pretreated 30 min before the injection of amphetamine.

In the case of `O=C(CCCN1CCC(O)(c2ccc(Cl)cc2)CC1)c1ccc(F)cc1` [haloperidol], the “effect on PCP-induced hypofunction” value (chronic PCP-treated rats [1]; auditory structures, reported previously (Cochran et al., 2003)) is given as “reversed the PCP-induced hypofunction”, the “effect on PCP-induced metabolic hypofunction” value (chronic PCP-treated rats [1]; prelimbic region of the prefrontal cortex, shown previously (Cochran et al., 2003)) is given as “failed to reverse” and the “effect on PCP-induced hypofunction” value (chronic PCP-treated rats [1]; reticular nucleus of the thalamus, shown previously (Cochran et al., 2003)) is given as “failed to reverse”. The “effect on PCP-induced metabolic hypofunction (LCGU)” value (chronic PCP-treated rats [2]; prelimbic region of the prefrontal cortex, chronic treatment) was “not by haloperidol or clozapine”, the “effect on PCP-reduced local glucose utilisation” value (chronic PCP-treated rats [2]; ventral lateral lemniscus, chronic treatment (FIG. 4)) was “only partially restores the hypofunction” and the “effect on PCP-reduced local glucose utilisation” value (chronic PCP-treated rats [2]; ventral reticular thalamic nucleus, chronic treatment (FIG. 3)) was “not by haloperidol or clozapine”.
For `O=C1CCCN1CC#CCN1CCCC1` [oxotremorine], the “reduction of c-AMP levels (agonist activity)” value [3] was “showed the ability to reduce c-AMP levels”.
For `CN1[C@@H]2CC[C@H]1C[C@@H](OC(=O)C(CO)c1ccccc1)C2` (stereo partly shown) [atropine], the “blockade of the cAMP-reducing effect of Compound 32” value [3] was “the effect was blocked”.
For `CCCSc1nsnc1[C@H]1CN2CCC[C@H]1C2` [PTAC, (5R,6R)6-(3-propylthio-1,2,5-thiadiazol-4-yl)-1-azabicyclo(3.2.1)octane], the “effect on apomorphine-induced disruption of PPI” value [4] was “Neither PTAC nor SB25871 alone affect the disruption induced by apomorphine”.
For `Cc1cccc(S(=O)(=O)N2CCC[C@@H]2CCN2CCC(C)CC2)c1` [SB258741, R-(+)-1-(toluene-3-sulfonyl)-2-[2-(4-methylpiperidin-1-yl)ethyl]pyrrolidine], the “effect on apomorphine-induced disruption of PPI” value [4] was “Neither PTAC nor SB25871 alone affect the disruption induced by apomorphine”.
In the case of `COc1cc2c(cc1OC)CN(/C=N/c1ccc3c(c1)C(O)CC3)CC2` (stereo not shown) [Compound 32], the Ki (human D2 membrane) is reported as > 300 µM, the Ki (human 5-HT7 receptors) is reported as 0.4 µM and the Ki [5] is reported as 0.32 µM. The “reduction of c-AMP levels (agonist activity)” value [3] was “able to reduce cAMP levels”, the “Line Crossings (mean ± S.E.)” value ([6]; dose 1 mg/kg, i.p.) was 98.8 ± 7.3 and the “Line Crossings (mean ± S.E.)” value ([6]; dose 3 mg/kg, i.p.) was 89.6 ± 13.3. The “Line Crossings (mean ± S.E.)” value ([6]; dose 10 mg/kg, i.p.) was 45.6 ± 8.3, the “effect on amphetamine-induced hyperactivity” value ([6]; rats, i.p., 30 min before amphetamine) was “suppressed the hyperactivity in a dose-dependent manner” and the “ED50, suppression of amphetamine-induced hyperactivity” value ([6]; rats, amphetamine 1.0 mg/kg i.p., 95% confidence limits, estimated) was 8.1 (95% confidence limits; 4.4-15) mg/kg, i.p.
With `OC1CCc2ccc(/N=C/N3CCc4ccccc4C3)cc21` (stereo not shown) [Compound 34, 6-[(3,4-dihydro-1H-isoquinolin-2-ylmethylene)-amino]-indan-1-ol] the Ki (human D2 membrane) was > 300 µM, the Ki (human 5-HT7 receptors) was 2.7 µM and the Ki [5] was 2.8 µM.
